{
  "source": "patent US20240115875A1",
  "about": "“Systems, Methods, and Substances for Controlled Endoluminal Energy Application” (Dream Big Biotechnologies B.V., priority 2021, published 2024)",
  "key": {"tumor tissue [1]": {"test_system": "tumor tissue", "experiment": "Estimated PDT threshold doses for several photosensitizers (photodynamic threshold model)", "details": "in tumor, from uptake and molar weight", "experimental": "In these simulations, we assumed intravenous administration of a light-absorbing drug and the placement of a light emitter in the endovascular system at the site of tumor encroachment around it. Light absorbed by the photosensitizer was assumed to result in the local creation of short-lived cytotoxic radicals, causing cell death e.g. hemorrhagic tissue necrosis and apoptosis. To quantify the attainable effects, light-dose escalation studies were performed using Monte Carlo light propagation simulations (FullMonteCUDA) (“High-performance, robustly verified Monte Carlo simulation with FullMonte,” J. Biomed. Opt. 23(8), 085001 (2018)). The use of the photosensitizer BPD-MA mediated PDT was initially investigated in a simple “cube and tube” geometry representing the pancreas and a vessel traversing its center. The multilayered tube represented the vascular wall layers, intima, media and adventitia having an air-filled balloon with a linear line source in the center. […] Simulation properties were assigned as described above and PDT activation energies were escalated over the range of 10-100 J cm^−1 diffuser length, and the anticipated threshold dose in mJ·cm^−3 and radii of necrosis were estimated based on the photodynamic threshold model introduced by Patterson M, Wilson B C, Graff R: In vivo test of the concept of photodynamic threshold dose in normal rat liver photosensitized by aluminum chlorosulfunated phthalocyanine. Photochem Photobiol, 51(3): 343-349, 1990.\nThe pancreatic model is shown in FIG. 7A comprising a 4×4×5 cm cube, one half is assigned with optical properties of normal pancreatic tissue and the other half with those of cancerous pancreatic tissues. Running through the cube's center is a blood vessel made up of three layers, intima, media, adventitia, with assigned properties from the literature for aortic tissues. An initial dose-escalation simulation investigated if an adequate fluence [J·cm^−2] can be delivered through the vessel wall to create a surgically sufficiently large circumferential necrotic margin (mm) surrounding the vessel, based on the photosensitizer accumulation and the sensitizer's molar extinction coefficient. The vessel's inner diameter and wall thickness were set to 7.0 mm and 1.30 mm, respectively. The energy emitting source was cylindrical in shape with a length of 20 mm and the irradiance at the intima surface was fixed at 200 mW·cm^−2. The exposure times escalated to deliver 10 to 100 J total energy. An example of the absorbed energy density as a function of radius from the vessel center is shown in FIG. 7B, with an estimated necrotic margin ranging from […]. The subsequent necrotic clearing of viable tumor tissue from the adventitia is predicted based on the threshold model for common photosensitizers, see Tables 1 and 2."}, "tumor tissue [2]": {"test_system": "tumor tissue", "details": "input of the simulation, cited from earlier work; for Tumor uptake: assumed tissue uptake; for Molar extinction coefficient ϵ: at the wavelength given with each photosensitizer (630-690 nm)"}, "[3]": {"test_system": "porcine pancreas and target vessels (splenic, hepatic, superior mesenteric artery)", "method": "Five large white porcine (Sus scrofa domesticus), weighing between 25-43 kg, were used as animal model, because the anatomy of the porcine pancreas and its vasculature closely resembles that of the human. Animals were handled according to the European Directive 2010/63 and French laws concerning animal protection in laboratories.\nFollowing the intravascular procedure, porcine recovered from anesthesia and were housed for a survival period of 24 hours up to one week. After the survival period the sedation protocol above was repeated and general anesthesia was induced using intravenous (18 G Intravenous catheter in-ear vein) propofol 3 mg/kg, followed by orotracheal intubation and maintained with rocuronium 0.8 mg/kg along with inhaled isoflurane 2%. At the end of the experiment, animals were euthanized with an intravenous injection of pentobarbital 40 mg/kg IV (Exagon ND, Axience).\nTo counteract possible effects of BPD-MA on the porcine blood pressure, the antihistamine dexchlorpheniramine was given the days before and immediately prior to the start of photosensitizer infusion. Polaramine® was administered at 2 mg p.o. BID to TID the day before and Polaramine® 5 mg IV (slow bolus) 30 to 60 minutes before photosensitizer injection. Methylprednisolone SoluMedrol®120 (3 mg kg-1) was administered also IV (slow bolus) 30 to 60 minutes before photosensitizer injection. […]\nTo visualize the pancreas and its target vessels for treatment planning, non-enhanced and contrast-enhanced CT scans were carried out shortly before treatment, in the early arterial and early portal venous phase. […] A 3D vascular roadmap was obtained via software manipulation (syngo.via, Siemens Healthineers AG, Germany) and the position, morphology and dimensions of the target vessels were assessed and used for later co-localization during the angiography-guided procedure and placement of a suitably sized PDT light source, being a prototype irradiating balloon catheter. […]"}, "[4]": {"experiment": "In-vivo porcine model, heart rate and blood pressure during photosensitizer infusion", "parameters": "species or system Sus scrofa domesticus", "details": "for changes in blood pressure or heart rate during the injection: 5% i.v. dextrose drip", "experimental": "The preclinical experiments in pigs required some precautions.\n[…] […] The animal gradually recovered after 10 to 20 min and stabilized to normal heart rates."}, "[5]": {"test_system": "porcine pancreas, splenic vein and artery", "experiment": "In-vivo dose escalation in healthy porcine, endovascular balloon-catheter PDT, 48h CT and histopathology", "experimental": "The performance of Monte Carlo simulations determined that the photosensitizer verteporfin appears to be a suitable photosensitizer and that perivascular necrosis can occur when irradiating at relevant light dose ranges in a clinically acceptable time range of several minutes. In-vivo experiments were carried out in healthy porcine (n=7) delivering light irradiation from an endovascular balloon-catheter laser probe.\nThe irradiating balloon catheter was placed in the splenic vein (crosshair) and an increasingly large hypodense margin, interpreted as PDT induced necrosis, can be observed for increasing doses.\nIn FIG. 12A, the pancreas can be observed with the splenic vein, artery, and the approximate location of the irradiating balloon catheter. Radially extending into the pancreas is a circumferential margin of necrosis (dotted line and arrows, circa 10 mm)."}},
  "data": [
    {"compound": "c1ccc2c(c1)-c1nc-2nc2[nH]c(nc3nc(nc4[nH]c(n1)c1ccccc41)-c1ccccc1-3)c1ccccc21", "note": "[Phthalocyanine]", "values": [
      {"measurement": "Photosensitizer concentration", "setting": "tumor tissue [1]", "result": "2.3 · 10^−5 M"},
      {"measurement": "Tumor uptake", "setting": "tumor tissue [2]", "result": 12.3, "unit": "mg/g"}
    ]},
    {"compound": "C=Cc1c(C)c2cc3nc(c(CC(=O)N[C@@H](CC(=O)O)C(=O)O)c4[nH]c(cc5nc(cc1[nH]2)C(C)=C5CC)c(C)c4C(=O)O)[C@@H](CCC(=O)O)[C@@H]3C", "note": "[Talaporfin]", "values": [
      {"measurement": "Photosensitizer concentration", "setting": "tumor tissue [1]", "result": "2.2 · 10^−6 M"},
      {"measurement": "Tumor uptake", "setting": "tumor tissue [2]", "result": 1.62, "unit": "mg/g"},
      {"measurement": "Molar extinction coefficient ϵ", "setting": "tumor tissue [2]", "result": "40,000 M^−1 cm^−1"}
    ]},
    {"compound": "Oc1cccc(-c2c3nc(c(-c4cccc(O)c4)c4ccc([nH]4)c(-c4cccc(O)c4)c4nc(c(-c5cccc(O)c5)c5ccc2[nH]5)CC4)C=C3)c1", "note": "[Temoporfin, 5,10,15,20-Tetra(m-hydroxyphenyl)chlorin]", "values": [
      {"measurement": "Tumor uptake", "setting": "tumor tissue [2]", "result": 0.5, "unit": "mg/g"}
    ]},
    {"compound": "Photofrin", "values": [
      {"measurement": "Photosensitizer concentration", "setting": "tumor tissue [1]", "result": "6.8 · 10^−6 M"},
      {"measurement": "Tumor uptake", "setting": "tumor tissue [2]", "result": 8.1, "unit": "mg/g"},
      {"measurement": "Molar extinction coefficient ϵ", "setting": "tumor tissue [2]", "result": "1,170 M^−1 cm^−1"}
    ]},
    {"compound": "benzoporphyrin derivative monoacid ring A [Verteporfin]", "values": [
      {"measurement": "hypodense area around the target vessel on contrast-enhanced CT, extending outwards from the outer wall of the vessel (possible PDT-induced necrosis)", "setting": "[3]; 0.4-1.6 mg·kg^−1 i.v., 690 nm, 150 mW·cm^−2, 75-225 J·cm^−2, CT 24 h to one week", "result": "2-6 mm"},
      {"measurement": "splenic arterial wall histopathology", "setting": "[3]; in vivo", "result": "endothelial loss and necrotic cellular tissues were observed, but the extracellular matrix containing collagen and elastin was preserved in some cases"},
      {"measurement": "vessel structural integrity on contrast-enhanced CT", "setting": "[3]; in vivo", "result": "no perforations, ruptures, and bleedings were observed"},
      {"measurement": "changes in heart rate during injection", "setting": "[4]; first porcine, i.v. saline drip, without pre-medications, injection stopped at 0.2 mg kg^−1", "result": "Immediate changes occurred in the heart rate, decreasing to a degree that adrenaline was administered to stabilize the animal"},
      {"measurement": "changes in blood pressure or heart rate during the injection", "setting": "[4]; porcine 2-3, pre-medicated excluding heparin, 0.4 mg·kg^−1", "result": "No changes occurred in blood pressure or heart rate during the injection"},
      {"measurement": "changes in blood pressure or heart rate during the injection", "setting": "[4]; porcine 4-5, pre-medicated including heparin, 1.6 mg·kg^−1", "result": "No changes occurred in blood pressure or heart rate during the injection"},
      {"measurement": "Photosensitizer concentration", "setting": "tumor tissue [1]", "result": "3.3 · 10^−5 M"},
      {"measurement": "Tumor uptake", "setting": "tumor tissue [2]", "result": 23.9, "unit": "mg/g"},
      {"measurement": "Molar extinction coefficient ϵ", "setting": "tumor tissue [2]", "result": "33,000 M^−1 cm^−1"},
      {"measurement": "radius of apparent perivascular circumferential tissue necrosis", "setting": "[5]; 0.4-3.2 mg/kg, light irradiation 8-25 minutes, 48h contrast-enhanced CT and histopathology, n=7", "result": "2-15 mm"},
      {"measurement": "artery and vein wall histopathology", "setting": "[5]; L-size dose 1.6 mg/kg, 48h post PDT", "result": "intact vessel unruptured walls albeit with atrophic muscular cells and ulcerated endothelial cells"},
      {"measurement": "circumferential margin of necrosis extending into the pancreas, histopathology", "setting": "[5]; L-size dose 1.6 mg/kg, 48h post PDT, H&E and EVG", "result": "circa 10 mm"}
    ]}
  ]
}
